In patent publication US11141371B2, “Extracts of Nannochloropsis sp. and their applications” (Cutech SRL, priority 2014, dated 2021):

Experiments:
[1] = system: ex-vivo cultured human skin; assay: Melanogenesis in ex-vivo human skin culture (melanin content, Fontana-Masson staining); type: cell-based
Procedure: The adopted culture medium was a modified William-E, and it was renewed at day three of the tissue culture. […] On a daily basis, 4 μl of these extract preparations were applied topically to the cultured skin samples, while the control group received the same quantity of the pure DMSO. After six days of organ culture, histological sections were prepared from the skin samples, and quantitative changes of melanin content were investigated by adopting the Fontana-Masson staining technique. The variation in melanin content was estimated by image analysis of the microphotographs of histological sections of skin.

[2] = system: human sebaceous glands (hSGs); assay: Sebum (normalized total lipids) of ex-vivo cultured human sebaceous glands; type: cell-based; conditions: 5 μM
Procedure: Using micro-scissors and tweezers, hSGs were isolated from the pilosebaceous units of a scalp skin sample. They were seeded in 24-well plates at a density of 8 hSGs/well and then cultivated in 500 μl of modified William E medium. After 24 hours of culture, the viability of the hSGs was assessed by means of resazurine assay. […] The control received modified William E medium, while the samples submitted to experimental treatments received the same medium supplemented with the extracts. The culture medium was renewed every other day.

[3] = system: IL-1α; assay: IL-1α release by ex-vivo skin stimulated with 2% SDS (ELISA); type: cell-based, human; conditions: 2% SDS stimulus, lenitive treatment 10 μM; Table 7
Procedure: In order to study the biological activity of the ethanol extract (EtOH) from Nannochloropsis sp. on the inflammatory response of skin to irritation, the experimental protocol hereinafter summarized was adopted: • i. ex-vivo skin samples (7 mm in diameter) were cultivated for 24 hours in 6-well plates (4 skin samples/well) with 2.5 ml/well of modified Williams E medium. The experimental design included the following experimental groups, each comprising 8 skin samples cultivated in 2 wells: • 1. control samples cultivated without receive any stimulus or treatment; • 2. samples stimulated with 2% SDS without subsequent lenitive treatment (negative control); • 3. samples stimulated with 2% SDS and then treated with dexamethasone at 10 μM (positive control). • 4. 2 groups of samples stimulated with 2% SDS and then treated with EtOH extract at 1 and 10 μg/ml respectively; • ii. After 24 hours of culture the culture medium was renewed and the experimental groups 2 to 4 received the irritant stimulus (2% SDS) through topical application of 4 μl of preparation for each skin sample. After 3 hours the stimulus was removed by mean of cotton buds and 4 μl of lenitive treatment was then administered topically to groups 3 to 4. Stimulus treatments were applied in 50% DMSO, while the lenitive treatments were in pure DMSO. • iii.

Question: For `O=c1cc(CO)occ1O` [KA, Kojic acid], which “Melanin content as % ratio of the control group performance” value ([1]; 0.1%, Table 6) is on record?
Answer: 83.2%

Question: `COc1cc(CNC(=O)CCCC/C=C/C(C)C)ccc1O` [Capsaicin] was tested. Which “Sebum in hSGs as % ratio of the control group value” (“Sebum in hSGs as % ratio” below) ([2]; another donor (Table 11)) did it give?
Answer: 66.5%

Question: What about the “Sebum in hSGs as % ratio” value ([2]; another donor (Table 12)) of the same molecule?
Answer: 91.9%

Question: And the “Sebum in hSGs as % ratio” value ([2]; another donor (Table 13))?
Answer: 45.6%

Question: For `C[C@@H]1C[C@H]2[C@@H]3CCC4=CC(=O)C=C[C@]4(C)[C@@]3(F)[C@@H](O)C[C@]2(C)[C@@]1(O)C(=O)CO` [Dexam., dexamethasone], which IL-1α [3] is on record?
Answer: 48.6 pg/mL

Question: What about the “IL-1α release [%], SDS group as reference (100%)” value [3] of the same molecule?
Answer: 92.2%

Question: Which results are given for `CC1=C(/C=C/C(C)=C/C=C/C(C)=C/C(=O)O)C(C)(C)CCC1` [Retinoic ac., Retinoic acid]?
Answer: Melanin content as % ratio of the control group performance ([1]; 10 μM, third donor (Table 5)): 82.4%; Melanin content as % ratio of the control group performance ([1]; 100 μM, third donor (Table 5)): 88.3%
